Test system: female Wistar rats having DMBA-induced breast cancer
Assay: Serum antioxidant enzyme activities in rats with DMBA-induced breast cancer
Format: in vivo, rat
Details: oral, daily for three months, ADE 1 or 0.5 g/kg b.w., melatonin 2.5 mM
Description: This is an in vivo experiment showing the improvement of Ajwa Date Extract (ADE) on the antioxidant system in rats having breast cancer induced by 7,12-Dimethylbenz[a]anthracene (DMBA).
The experiment of DMBA-induced breast cancer in female Wistar rats was comprised of six different treatment groups: the untreated controls (administered normal diet), DMBA-treated, DMBA-treated and orally administered 1 g/kg b.w. (body weight) of ADE, DMBA-treated and orally administered 0.5 g/kg b.w. of ADE, DMBA-treated and administered orally 2.5 mM melatonin, and DMBA-treated and administered 2.5 mM melatonin plus 1 g/kg b.w. of ADE. All six groups were treated daily for three months. On sacrification day, samples of blood were collected with the serum being separated and stored at −80° C.
The collected sera were analyzed for four mean activities namely, of superoxide dismutase (SOD) catalase, glutathione reductase (GR), and glutathione peroxidase (GPx). The means of the four activities in sera of the six treatment groups are illustrated in FIGS. 4-7. The mean serum SOD (FIG. 4), catalase (FIG. 5), GR (FIG. 6), and GPx (FIG. 7) in DMBA and ADE and/or melatonin administered rats was higher than that of the DMBA administered rats that were deprived of the ADE and/or melatonin.

COc1ccc2[nH]cc(CCNC(C)=O)c2c1 [melatonin]
higher: mean serum SOD activity (compared with DMBA-only rats (FIG. 4)) | mean serum catalase activity (compared with DMBA-only rats (FIG. 5)) | mean serum GR activity (compared with DMBA-only rats (FIG. 6)) | mean serum GPx activity (compared with DMBA-only rats (FIG. 7))
